Data: US8741897B2, “Glucocorticoid mimetics, methods of making them, pharmaceutical compositions and uses thereof” (Boehringer Ingelheim Pharmaceuticals Inc., priority 2003, dated 2014)

System: glucocorticoid receptor function
Assay: one or more of the above assays (GR binding and glucocorticoid receptor cell assays: aromatase, IL-6, TAT, MMTV-Luc, IL-8, ICAM-Luc)
Format: cell-based
Conditions: assay not specified per compound

| Structure (SMILES) | activity as agonists of the glucocorticoid receptor function in one or more of the above assays |
| --- | --- |
| Cc1ccc(F)cc1C(C)(C)CC(O)(Cc1cc2cc(-c3ccccc3)ncc2[nH]1)C(C)C (stereo not drawn) [5-(5-Fluoro-2-methylphenyl)-2,5-dimethyl-3-(5-phenyl-1H-pyrrolo[2,3-c]pyridin-2-ylmethyl)hexan-3-ol] | agonists |
| CC(C)(CC(O)(Cc1cc2cc(Br)ccc2[nH]1)C(F)(F)F)c1cc(Cl)cc2c1OCC2 (stereo not drawn) [2-(5-Bromo-1H-indol-2-ylmethyl)-4-(5-chloro-2,3-dihydrobenzofuran-7-yl)-1,1,1-trifluoro-4-methylpentan-2-ol] | potent agonists |
| CC(C)(CC(O)(Cc1cc2cc(C#N)ccc2[nH]1)C(F)(F)F)c1cc(S(C)(=O)=O)cc2c1OCC2 (stereo not drawn) [2-[2-Hydroxy-4-(5-methanesulfonyl-2,3-dihydrobenzofuran-7-yl)-4-methyl-2-trifluoromethylpentyl]-1H-indole-5-carbonitrile] | potent agonists |
| CC(C)(CC(O)(Cc1cc2cc(-c3cncnc3)ccc2[nH]1)C(F)(F)F)c1cc(F)cc2c1OCC2 (stereo not drawn) [1,1,1-Trifluoro4-(5-fluoro-2,3-dihydrobenzofuran-7-yl)-4-methyl-2-(5-pyrimidin-5-yl-1H-indol-2-ylmethyl)pentan-2-ol] | potent agonists |
| Cc1nccc2[nH]c(CC(O)(CC(C)(C)c3ccc(F)cc3O)C(F)(F)F)cc12 (stereo not drawn) [5-Fluoro-2-[4,4,4-trifluoro-3-hydroxy-1,1-dimethyl-3-(4-methyl-1H-pyrrolo[3,2-c]pyridin-2-ylmethyl)butyl]phenol] | potent agonists |
| Cc1ccc(F)cc1C(C)(C)CC(O)(Cc1cc2nc(-c3ccccc3)ncc2[nH]1)C(F)(F)F (stereo not drawn) [1,1,1-Trifluoro-4-(5-fluoro-2-methylphenyl)-4-methyl-2-(2-phenyl-5H-pyrrolo[3,2-d]pyrimidin-6-ylmethyl)pentan-2-ol] | potent agonists |
| CC(C)(CC(O)(Cc1cc2cc(-c3ccccc3)ncc2[nH]1)C(F)(F)F)c1cccc(CN2CCOCC2)c1 (stereo not drawn) [1,1,1-Trifluoro-4-methyl-4-(3-morpholin-4-ylmethylphenyl)-2-(5-phenyl-1H-pyrrolo[2,3-c]pyridin-2-ylmethyl)pentan-2-ol] | potent agonists |
| CC(C)(CC(O)(Cc1cc2cnccc2[nH]1)C(F)(F)F)c1cccc(CN2CCOCC2)c1 (stereo not drawn) [1,1,1-Trifluoro-4-methyl-4-(3-morpholin-4-ylmethylphenyl)-2-(1H-pyrrolo[3,2-c]pyridin-2-ylmethyl)pentan-2-ol] | potent agonists |
| CC(C)(CC(O)(Cc1cc2ncncc2[nH]1)C(F)(F)F)c1ccc(F)cc1O (stereo not drawn) [5-Fluoro-2-[4,4,4-trifluoro-3-hydroxy-1,1-dimethyl-3-(5H-pyrrolo[3,2-d]pyrimidin-6-ylmethyl)butyl]phenol] | potent agonists |
| CC(C)(CC(O)(Cc1cc2nc(CN3CCOCC3)ccc2[nH]1)C(F)(F)F)c1cc(Cl)ccc1O (stereo not drawn) [4-Chloro-2-[4,4,4-trifluoro-3-hydroxy-1,1-dimethyl-3-(5-morpholin-4-ylmethyl-1H-pyrrolo[3,2-b]pyridin-2-ylmethyl)butyl]phenol] | potent agonists |
| CC(C)(CC(O)(Cn1ccc2c1CCCC2=O)C(F)(F)F)c1cc(-c2cncnc2)ccc1O (stereo not drawn) [1-[2-Hydroxy-4-(2-hydroxy-5-pyrimidin-5-ylphenyl)-4-methyl-2-trifluoromethylpentyl]-1,5,6,7-tetrahydroindol-4-one] | agonists |
| COc1ccc(-c2cncnc2)cc1C(C)(C)CC(O)(Cc1cc2cc(OC(C)C)ncc2[nH]1)C(F)(F)F (stereo not drawn) [1,1,1-Trifluoro-2-(5-isopropoxy-1H-pyrrolo[2,3-c]pyridin-2-ylmethyl)-4-(2-methoxy-5-pyrimidin-5-ylphenyl)-4-methylpentan-2-ol] | potent agonists |
| COc1ccc(F)cc1C(C)(C)CC(O)(Cc1cc2nc(-c3ccccc3)ncc2[nH]1)C(F)(F)F (stereo not drawn) [1,1,1-Trifluoro-4-(5-fluoro-2-methoxyphenyl)-4-methyl-2-(2-phenyl-5H-pyrrolo[3,2-d]pyrimidin-6-ylmethyl)pentan-2-ol] | potent agonists |
| CC(C)(CC(O)(Cc1cc2nc(N3CCCC3)ncc2[nH]1)C(F)(F)F)c1cc(F)ccc1O (stereo not drawn) [4-Fluoro-2-[4,4,4-trifluoro-3-hydroxy-1,1-dimethyl-3-(2-pyrrolidin-1-yl-5H-pyrrolo[3,2-d]pyrimidin-6-ylmethyl)butyl]phenol] | potent agonists |
| Cc1nccc2[nH]c(CC(O)(CC(C)(C)c3cc(-c4ccsc4)ccc3O)C(F)(F)F)cc12 (stereo not drawn) [4-Thiophen-3-yl-2-[4,4,4-trifluoro-3-hydroxy-1,1-dimethyl-3-(4-methyl-1H-pyrrolo[3,2-c]pyridin-2-ylmethyl)butyl]phenol] | potent agonists |
| Cc1ccc(F)cc1C(C)(C)CC(O)(Cc1cc2[nH]c(=O)ccc2[nH]1)C(F)(F)F (stereo not drawn) [2-[4-(5-Fluoro-2-methylphenyl)-2-hydroxy-4-methyl-2-trifluoromethylpentyl]-1,4-dihydropyrrolo[3,2-b]pyridin-5-one] | potent agonists |
| CC(C)(CC(O)(Cc1cc2cc(-c3cccc(C#N)c3)ccc2[nH]1)C(F)(F)F)c1cc(F)cc2c1OCC2 (stereo not drawn) [3-{2-[4-(5-Fluoro-2,3-dihydrobenzofuran-7-yl)-2-hydroxy-4-methyl-2-trifluoromethylpentyl]-1H-indol-5-yl}benzonitrile] | potent agonists |
| CC(C)(CC(O)(Cc1cc2cc(C#N)ncc2[nH]1)C(F)(F)F)c1cc(Cl)cc2c1OCC2 (stereo not drawn) [2-[4-(5-Chloro-2,3-dihydrobenzofuran-7-yl)-2-hydroxy-4-methyl-2-trifluoromethylpentyl]-1H-pyrrolo[2,3-c]pyridine-5-carbonitrile] | potent agonists |
| CC(C)(CC(O)(Cc1cc2ccc(C#N)cc2[nH]1)C(F)(F)F)c1cc(S(C)(=O)=O)cc2c1OCC2 (stereo not drawn) [2-[2-Hydroxy-4-(5-methanesulfonyl-2,3-dihydrobenzofuran-7-yl)-4-methyl-2-trifluoromethylpentyl]-1H-indole-6-carbonitrile] | potent agonists |
| COc1ccc(-c2ccccc2C#N)cc1C(C)(C)CC(O)(Cc1cc2cc(N3CCOCC3)ncc2[nH]1)C(F)(F)F (stereo not drawn) [4′-Methoxy-3′-[4,4,4-trifluoro-3-hydroxy-1,1-dimethyl-3-(5-morpholin-4-yl-1 H-pyrrolo[2,3-c]pyridin-2-ylmethyl)butyl]biphenyl-2-carbonitrile] | potent agonists |
| Cc1ccc(F)cc1C(C)(C)CC(O)(Cc1cc2cnccc2[nH]1)C(C)(C)C (stereo not drawn) [5-(5-Fluoro-2-methylphenyl)-2,2,5-trimethyl-3-(1H-pyrrolo[3,2-c]pyridin-2-ylmethyl)hexan-3-ol] | agonists |
| CCc1cccc2[nH]c(CC(O)(CC(C)(C)c3cc(F)ccc3OC)C(F)(F)F)cc12 (stereo not drawn) [2-(4-Ethyl-1H-indol-2-ylmethyl)-1,1,1-trifluoro-4-(5-fluoro-2-methoxyphenyl)-4-methylpentan-2-ol] | potent agonists |
| COc1ccc(F)cc1C(C)(C)CC(O)(Cc1[nH]c2ccncc2c1Cl)C(F)(F)F (stereo not drawn) [2-(3-Chloro-1H-pyrrolo[3,2-c]pyridin-2-ylmethyl)-1,1,1-trifluoro-4-(5-fluoro-2-methoxyphenyl)-4-methylpentan-2-ol] | potent agonists |
| Cc1c(CC(O)(CC(C)(C)c2cc(-c3cccnc3)ccc2O)C(F)(F)F)[nH]c2cnccc12 (stereo not drawn) [4-Pyridin-3-yl-2-[4,4,4-trifluoro-3-hydroxy-1,1-dimethyl-3-(3-methyl-1H-pyrrolo[2,3-c]pyridin-2-ylmethyl)butyl]phenol] | potent agonists |
| CC(C)(CC(O)(Cc1cc2cc(N3CCOCC3)ncc2[nH]1)C(F)(F)F)c1cccc(CN2CCOCC2)c1 (stereo not drawn) [1,1,1-Trifluoro-4-methyl-4-(3-morpholin-4-ylmethylphenyl)-2-(5-morpholin-4-yl-1H-pyrrolo[2,3-c]pyridin-2-ylmethyl)pentan-2-ol] | potent agonists |
| Cc1cncc2[nH]c(CC(O)(CC(C)(C)c3ccc(F)cc3O)C(F)(F)F)cc12 (stereo not drawn) [5-Fluoro-2-[4,4,4-trifluoro-3-hydroxy-1,1-dimethyl-3-(4-methyl-1H-pyrrolo[2,3-c]pyridin-2-ylmethyl)butyl]phenol] | potent agonists |
| CC(C)(CC(O)(Cc1cc2c(C#N)cccc2[nH]1)C(F)(F)F)c1cc(F)ccc1O (stereo not drawn) [2-[4-(5-Fluoro-2-hydroxyphenyl)-2-hydroxy-4-methyl-2-trifluoromethylpentyl]-1H-indole-4-carbonitrile] | potent agonists |
| CC(C)(CC(O)(Cc1cc2ccncc2[nH]1)C(F)(F)F)c1cccc(CN2CCOCC2)c1 (stereo not drawn) [1,1,1-Trifluoro-4-methyl-4-(3-morpholin-4-ylmethylphenyl)-2-(1H-pyrrolo[2,3-c]pyridin-2-ylmethyl)pentan-2-ol] | potent agonists |
| CC(C)C(O)(Cc1cc2cnccc2[nH]1)CC(C)(C)c1cc(Cl)cc2c1OCC2 (stereo not drawn) [5-(5-Chloro-2,3-dihydrobenzofuran-7-yl)-2,5-dimethyl-3-(1H-pyrrolo[3,2-c]pyridin-2-ylmethyl)hexan-3-ol] | agonists |
| Cc1ccc(F)cc1C(C)(C)CC(O)(Cc1cc2nc(CN3CCOCC3)ccc2[nH]1)C(F)(F)F (stereo not drawn) [1,1,1-Trifluoro-4-(5-fluoro-2-methylphenyl)-4-methyl-2-(5-morpholin-4-ylmethyl-1H-pyrrolo[3,2-b]pyridin-2-ylmethyl)pentan-2-ol] | potent agonists |
